From patent US10335504B2, “Heterocyclic molecules for biomedical imaging and therapeutic applications” (Washington University, priority 2013, dated 2019)
Entries after “also recorded” stand apart in the source; their conditions may differ.

Assays:
Aβ plaques [1] = test: Staining of human AD brain tissue sections; assay type: binding; conditions: person with AD; 50 nM
Method: Staining experiments were performed with human brain tissues. Tissue samples were obtained from the frontal lobe of clinically and neuropathologically well-characterized cases. The neuropathological diagnosis of AD was based on the criteria of the Consortium to Establish a Registry for Alzheimer's Disease (CERAD) (Mirra, S., et al. The Consortium to Establish a Registry for Alzheimer's Disease (CERAD). Part II. Standardization of the neuropathologic assessment of Alzheimer's disease. Neurology 41, 479-486 (1991)) or the National Institute of Aging-Reagan Institute (NIA-RI) (Hyman, B. & Trojanowski, J. Consensus recommendations for the postmortem diagnosis of Alzheimer disease from the National Institute on Aging and the Reagan Institute Working Group on diagnostic criteria for the neuropathological assessment of Alzheimer disease. J Neuropathol Exp Neurol 56, 1095-1097. (1997)). […]
The fluorescent probe (F-AI-183) labels fibrillar amyloid (arrow). The slides were analyzed on a using a Nikon Ti-E PFS inverted microscope equipped with a Nikon 10×0.3 NA Plan APO objective, Prior H117 ProScan flat top linear encoded stage, and Prior Lumen 200PRO illumination system with standard DAPI and FITC filter sets. […] Images were processed and analyzed using the Image J software package (NIH).

[2] = tested on: Human Pancreatic Cancer Cells (PANC1); test: Live cell fluorescence imaging; assay type: cell-based; conditions: 5 μM, 37° C., 30 min
Method: (§1) In these experiments, human carcinoma cells were incubated with AI-182
(§2) (5 μM) at 37° C. in the presence of 5% CO2 for 30 min, and examined using a Nikon Ti-E PFS inverted high resolution microscope equipped with a Nikon (Magnification: 20×) Plan APO objective, Prior H117 ProScan flat top linear encoded stage, and Prior Lumen 200PRO illumination system with standard DAPI and FITC filter sets. Top row: Live Cell Imaging of Human Glioblastoma (U87) Cells Using AI-182. Middle row: Live Cell Imaging of Human Pancreatic Cancer Cells (PANC1) Using AI-182. Bottom row: Live Cell Imaging of Human Pancreatic Cancer Cells (Mia PaCa-2) Using AI-182.

[3] = tested on: Human Glioblastoma (U87) Cells; test: Live cell fluorescence imaging; assay type: cell-based; conditions: 5 μM, 37° C., 30 min
Method: as §1, §2

[4] = tested on: Human Pancreatic Cancer Cells (Mia PaCa-2); test: Live cell fluorescence imaging; assay type: cell-based; conditions: 5 μM, 37° C., 30 min
Method: as §1, §2

Aβ plaques [5] = biological target: T1, Aβ plaques (Homo sapiens, UniProt P05067); test: Multiphoton imaging in live APP/PS1 mice; assay type: in vivo, mouse
T1 construct: from tissue; host or cells: brain of APPsw+/-/PS1 (and APPsw+/-) transgenic mice: sections ex vivo, and live animals for multiphoton imaging
Method: Prior to imaging, dextran-Texas Red was injected for mapping the blood vessels. Following labeling of blood vessels, F-AI-182 (2 mg/kg, dissolved in DMSO/PEG; 20:80) was intravenously injected. A z-stack image series was acquired from cortex surface to a depth of approx. 100 μm using microscope LSM 510META NLO (Carl-Zeiss Inc). […] The labeling of brain parenchymal plaques was visible within 10 min, indicating facile clearance from non-targeted regions and remained labeled for 30 min (FIG. 6). Multi-photon imaging can be done using ^18F-AI-182, other agents, or second generation agents (Bacskai, B., et al. Four-dimensional multiphoton imaging of brain entry, amyloid binding and clearance of an amyloid-3 ligand in transgenic mice. Proc Natl Acad Sci USA 100, 12462-12467 (2003)).

Aβ plaques [6] = biological target: T1, Aβ plaques; test: Ex vivo staining of mouse brain sections; assay type: binding; conditions: 24 months
Method: FIG. 2 illustrates ex vivo staining studies were performed on brain sections (50 μm) of an APPsw^+/−/PS1 mouse (24 months old) and a control WT mouse (BL/6; 24 months old) using well-established procedures. Briefly, tissue sections were immunostained with mouse monoclonal antibody and visualized by donkey-anti-mouse HJ3.4 Aβ monoclonal antibody-Alexa 568 as a positive control. […] By comparison, no staining in WT mice was seen either with F-AI-182 or the antibody indicating the targeting specificity of F-AI-182. The slides were analyzed on a Zeiss LSM 5 PASCAL confocal system coupled to a Zeiss Axiovert 200 microscope.
The slides were analyzed using a Nikon Ti-E PFS inverted microscope equipped with a Nikon 10x 0.3 NA Plan APO objective, Prior H117 ProScan flat top linear encoded stage, and Prior Lumen 200PRO illumination system with standard DAPI and FITC filter sets. The images were acquired using a Photometrics CoolSNAP HQ2 digital camera and MetaMorph microscopy automaton, and imaging software. Images were processed and analyzed using the Image J software package (NIH).

preformed Aβ1-42 fibrils = biological target: T2, preformed Aβ1-42 fibrils (Homo sapiens, UniProt P05067); test: Binding assay with preformed Aβ1-42 fibrils/aggregates in PBS (fluorescence); conditions: PBS
T2 construct: preformed Aβ1-42 fibrils
From the text: In some embodiments of the present teachings, binding assays to preformed fibrils or AD brain homogenate extracts can be performed using literature procedures (Klunk, W., et al. Uncharged thioflavin-T derivatives bind to amyloid-beta protein with high affinity and readily enter the brain. Life Sci 69, 1471-1484 (2001); Zhen, W., et al. Synthesis and amyloid binding properties of rhenium complexes: preliminary progress towards a reagent for SPECT imaging of Alzheimer's disease brain. J Med Chem 42, 2805-2815 (1999)). Prior to binding assays, the stock solution (2 μM) can be thawed. To aliquots of this stock solution, ^18F-AI-182 (also exemplified for either ^18F-AI-183 or ^18F-AI-187) can be added at various concentrations to a final concentration of 200 nM Aβ fibrils or 200 μL of AD brain extracts (20-25 μg). The aggregate-bound ^18F-AI-182 (or other analogues) can be collected on Whatman GF filters using Brandon M-24R cell harvester, washed, and counted in a γ-counter (Perkin Elmer). Inhibition constants (Ki) can be calculated as described previously (Han, H., Cho, C. & Lansbury, P. J. Technetium complexes for quantification of brain amyloid. J Am Chem Soc 118, 4506-4508 (1996)). Binding assay results can assist in evaluation of target specificity.
Binding assays of F-AI-182 with preformed Aβ1-42 aggregates were performed in PBS. […] Fluorescence was not observed using Aβ aggregates alone in PBS upon excitation at 410 nm (a negative control). […] Comparative analyses can be performed with other compounds such as AV-45, BAYER 94-9172, and AZD4694. An agent can be interacting with either of the two modestly high affinity binding sites (BS1& BS2) or recognizing an entirely new site on Aβ1-42. F-AI-182 can register different complementary binding sites in relation to Aβ-pathophysiology compared to current agents.

Hydrophobicity (log P) = assay type: physicochemical

T1 sequence (P05067 672-713 limits assumed): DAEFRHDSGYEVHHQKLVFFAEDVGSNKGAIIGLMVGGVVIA
T2 sequence (P05067 672-713 limits assumed): as above

Which “staining of Aβ plaques in human AD brain sections” value (Aβ plaques [1]) does the source give for `CN(C)c1ccc(/C=C/c2nc3ccc(OCCF)cc3s2)cn1` [F-AI-182] here?
Its value is “detect both diffuse and compact AP plaques; also recorded: stains both fibrillar and diffuse plaques; also recorded: abundant staining of Aβ plaques”.

What about the “probe uptake in cells (fluorescence)” value [2] of the same compound?
The value was “accumulation of the probe within cells”.

What about the “probe uptake in cells (fluorescence)” value [3] of the same compound?
Its value is “accumulation of the probe within cells”.

What about the “probe uptake in cells (fluorescence)” value [4] of the same compound?
The value was “accumulation of the probe within cells”.

And the “time at which labeling of brain parenchymal plaques was visible” value (Aβ plaques [5]; live APP/PS1 mice)?
Its value is ≤ 10 min.

What about the “time plaques remained labeled” value (Aβ plaques [5]; live APP/PS1 mice) of the same compound?
Its value is 30 min.

And the “labeling of plaques in vivo by multi-photon microscopy” value (Aβ plaques [5]; live APPsw+/−/PS1 mice, 2 mg/kg i.v., 2 mg/kg)?
Its value is “label plaques in brain parenchyma and blood vessels (CAA)”.

What about the “staining of plaques in hippocampus and cortical region of brain sections” value (Aβ plaques [6]; APPsw+/−/PS1 mice, 100 nM, 60 min) of the same compound?
Its value is “staining of both fibrillar and diffuse plaques; also recorded: stains both fibrillar and diffuse plaques; also recorded: abundant staining of fibrillar and diffuse plaques”.

And the “staining of brain sections of WT mice” value (Aβ plaques [6]; WT BL/6 mouse)?
Its value is “no staining”.

And the Kd (preformed Aβ1-42 fibrils; concentration dependent and saturable binding, read-out: binding constant (Kd) to preformed Aβ1-42 fibrils)?
Its Kd is 59 ± 7 nM.

And the “fluorescence of 570 nm peak upon incubation with preformed Aβ(1-42) aggregates” value (preformed Aβ1-42 fibrils; excitation 410 nm)?
Its value is “remarkable enhancement in the fluorescence”.

And the logP (Hydrophobicity (log P))?
The logP was 1.2.
